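Five compound concentrations were applied to cells in 96-well plates for 48 hours; endpoints were derived by simple linear interpolation of the resulting dose-response curve. GI50 = concentration required for 50% inhibition of growth.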 Active and inactive are the calls of the source. Rule as the data show it: active = GI50 up to about 1.1 µM and inactive = higher.

Some test systems named below: HL-60; PC-3; SF-539; TK-10; HCT-15; DU-145; MDA-MB-435; HCC 2998; SN12C; NCI-H226; T47D; HOP-62; UO-31; RXF 393; HOP-92; NCI-H23; M14; SNB-19; NCI-H522.
Common to all, as to experiment: growth of human tumour cells (NCI), 48 h

As for `COc1cc(COC(=O)NC(Cc2cccs2)C(=O)O)c([N+](=O)[O-])cc1OC` (stereo not given), the GI50 with HL-60 was > 100 µM (inactive); with PC-3 it was > 100 µM (inactive); in the assay with SF-539, > 100 µM (inactive); in the assay with TK-10, > 100 µM (inactive); in the assay on HCT-15 it was over 100 µM; in the assay on DU-145, > 100 µM (inactive). Besides, the GI50 in the assay with MDA-MB-435, in the assay on HCC 2998, in the assay with SN12C, with NCI-H226, in the assay on T47D and in the assay on HOP-62 was > 100 µM (inactive) in each case. Besides, the GI50 in the assay with UO-31, in the assay with RXF 393, in the assay on HOP-92, in the assay with NCI-H23, in the assay on M14 and in the assay with SNB-19 was > 100 µM (inactive) in each case.
Consider `COc1ccc(C2CC(c3ccc4ccccc4c3O)=NN2)cc1OC` (stereo not given), for which the GI50 with PC-3 is 33.9 µM (inactive); in the assay on SF-539 it was 31.3 µM (inactive); with TK-10, 95.1 µM (inactive); in the assay on HCT-15, 41.7 µM; with DU-145, 77.6 µM (inactive); in the assay on MDA-MB-435 it was 27 µM (inactive). In addition, the GI50 with NCI-H522 is 40.1 µM (inactive); in the assay with HCC 2998, 45.6 µM (inactive); in the assay with SN12C, 48.6 µM (inactive); with NCI-H226 it was > 100 µM (inactive); with T47D, 45 µM (inactive); in the assay on HOP-62, 54.6 µM (inactive). For the same molecule, the GI50 is 46.2 µM (inactive) with UO-31; 74.1 µM (inactive) with RXF 393; > 100 µM (inactive) in the assay with HOP-92; 49.9 µM (inactive) in the assay on NCI-H23; 66.2 µM (inactive) in the assay on M14.
For the molecule `O=C(C#Cc1cn(C2CC(O)C(CO)O2)c(=O)[nH]c1=O)c1ccccc1` (stereo not given), the GI50 with PC-3 is > 100 µM (inactive); with SF-539 it was 23.2 µM (inactive); in the assay with TK-10 it was > 100 µM (inactive); with HCT-15, over 100 µM; with DU-145, > 100 µM (inactive); with MDA-MB-435 it was 58.9 µM (inactive). The GI50 is 5.6 µM (inactive) in the assay with NCI-H522; > 100 µM (inactive) in the assay on HCC 2998; 31.8 µM (inactive) in the assay on SN12C; 70 µM (inactive) with NCI-H226; 19.5 µM (inactive) with T47D; > 100 µM (inactive) in the assay with HOP-62. In addition, the GI50 in the assay on UO-31 was > 100 µM (inactive); in the assay with RXF 393 it was 17.5 µM (inactive); in the assay on HOP-92, 29.5 µM (inactive); in the assay with NCI-H23, > 100 µM (inactive); in the assay on M14, 28.5 µM (inactive); in the assay on SNB-19, > 100 µM (inactive).
On to `CN(CCNC(=O)c1nn(-c2ccc(Cl)cc2Cl)c2c1Cc1ccccc1-2)CCNC(=O)c1nn(-c2ccc(Cl)cc2Cl)c2c1Cc1ccccc1-2`, for which the GI50 is 1.55 µM (inactive) with HL-60; 5.87 µM (inactive) with PC-3; 1.85 µM (inactive) with SF-539; 6.31 µM (inactive) in the assay on TK-10; 2.29 µM in the assay on HCT-15; 4.69 µM (inactive) with DU-145. Further, the GI50 in the assay with MDA-MB-435 was 1.51 µM (inactive); in the assay with NCI-H522, 1.58 µM (inactive); in the assay with HCC 2998 it was 1.75 µM (inactive); with SN12C, 3.79 µM (inactive); in the assay with T47D, 3.77 µM (inactive); in the assay on HOP-62, 5.21 µM (inactive). The GI50 with UO-31 was 2.94 µM (inactive); in the assay on RXF 393, 2.25 µM (inactive); with HOP-92, 1.99 µM (inactive); in the assay with NCI-H23, 5.09 µM (inactive); with M14, 1.81 µM (inactive); in the assay on SNB-19 it was 3.71 µM (inactive).
In the case of `C[C@H](CCC1=NCCN1)[C@H]1CC[C@H]2[C@@H]3CC[C@@H]4C[C@H](O)CC[C@]4(C)[C@H]3CC[C@]12C`, the GI50 with PC-3 is 4.94 µM (inactive); in the assay with SF-539, 10.3 µM (inactive); in the assay on TK-10 it was 7.74 µM (inactive); with HCT-15 it was 18.5 µM; with DU-145, 13.9 µM (inactive); with MDA-MB-435, 4.53 µM (inactive). Further, the GI50 in the assay on NCI-H522 is 5.41 µM (inactive); in the assay on HCC 2998, 5.15 µM (inactive); with SN12C it was 8.85 µM (inactive); in the assay on NCI-H226, 7.46 µM (inactive); in the assay on T47D it was 13.1 µM (inactive); in the assay on HOP-62, 3.46 µM (inactive). Moreover, the GI50 in the assay with UO-31 was 14.2 µM (inactive); with RXF 393, 12.2 µM (inactive); in the assay with HOP-92, 3.3 µM (inactive); with NCI-H23 it was 15 µM (inactive); in the assay on M14, 2.49 µM (inactive); with SNB-19 it was 13.9 µM (inactive).
For the molecule `CC1=NN(c2cccc(S(=O)(=O)O)c2)C2(C1)C(Cl)C(=O)N2c1nc2ccccc2s1` (stereo not given), the GI50 in the assay with HL-60 is 2.61 µM (inactive); in the assay on PC-3, 10.5 µM (inactive); with TK-10, 14.2 µM (inactive); with HCT-15, 4.04 µM; in the assay with DU-145 it was 11.3 µM (inactive); in the assay with MDA-MB-435 it was 6.85 µM (inactive). Further, the GI50 was 1.81 µM (inactive) with NCI-H522; 15.1 µM (inactive) in the assay on HCC 2998; 5.37 µM (inactive) with SN12C; 5.82 µM (inactive) with NCI-H226; 9.35 µM (inactive) in the assay on T47D; 5.75 µM (inactive) with HOP-62. The GI50 in the assay with UO-31 is 3.55 µM (inactive); with RXF 393 it was 8.28 µM (inactive); in the assay with HOP-92, 2.57 µM (inactive); with NCI-H23 it was 4.61 µM (inactive); in the assay with M14 it was 8.65 µM (inactive); with SNB-19 it was 11.2 µM (inactive).
As to `CCN(CC)CCc1c2c(nc3ccccc13)C(=O)c1cccnc1C2=O`, the GI50 with HL-60 is 0.251 µM (active); in the assay on PC-3, 2.82 µM (inactive); in the assay with TK-10, 2.66 µM (inactive); in the assay on HCT-15, 0.188 µM; with DU-145, 0.344 µM (active); in the assay on MDA-MB-435, 1.93 µM (inactive). Besides, the GI50 in the assay with NCI-H522 is 0.731 µM (active); in the assay on HCC 2998, 2.54 µM (inactive); with SN12C it was 1.1 µM (active); in the assay with NCI-H226 it was 4.68 µM (inactive); in the assay on T47D, 1.96 µM (inactive); in the assay with HOP-62 it was 2.44 µM (inactive). Besides, the GI50 in the assay with UO-31 is 1.57 µM (inactive); in the assay on RXF 393, 2.37 µM (inactive); in the assay on HOP-92, 3.13 µM (inactive); in the assay on NCI-H23 it was 3.08 µM (inactive); in the assay on M14 it was 0.454 µM (active).
With `CCNC1=C(NC(=O)c2ccc(OC)cc2)C(=O)c2ccccc2C1=O`, the GI50 is 51.6 µM (inactive) with HL-60; 32.8 µM (inactive) in the assay with PC-3; 56.8 µM (inactive) in the assay with SF-539; > 100 µM (inactive) with TK-10; 48.4 µM in the assay on HCT-15; > 100 µM (inactive) in the assay on DU-145. In addition, the GI50 in the assay on MDA-MB-435 was 16.8 µM (inactive); in the assay on NCI-H522, 30.7 µM (inactive); in the assay with HCC 2998, 37.5 µM (inactive); with SN12C, 43.6 µM (inactive); in the assay on NCI-H226, > 100 µM (inactive); in the assay on T47D it was 66.1 µM (inactive). For the same molecule, the GI50 in the assay with HOP-62 was > 100 µM (inactive); in the assay with RXF 393, 28.5 µM (inactive); in the assay on HOP-92, > 100 µM (inactive); with NCI-H23, 43.6 µM (inactive); with M14, 21.6 µM (inactive); in the assay with SNB-19 it was > 100 µM (inactive).
For the molecule `CSC1=C(C(=O)N(COCC[Si](C)(C)C)c2ccccc2Br)CCC(C(C)(C)C)C1` (stereo not given), the GI50 in the assay on HL-60 was 3.24 µM (inactive); in the assay on PC-3, 12.4 µM (inactive); in the assay on TK-10, 23.5 µM (inactive); in the assay with HCT-15, 11.7 µM; with DU-145, 22.4 µM (inactive); in the assay with MDA-MB-435, 17.9 µM (inactive). Moreover, the GI50 is 7.78 µM (inactive) with NCI-H522; 13.4 µM (inactive) in the assay with HCC 2998; 14.1 µM (inactive) in the assay on SN12C; 13.9 µM (inactive) in the assay on NCI-H226; 6.81 µM (inactive) in the assay on T47D; 18.1 µM (inactive) in the assay with HOP-62. Besides, the GI50 in the assay on UO-31 was 12.6 µM (inactive); in the assay with RXF 393, 9.79 µM (inactive); with HOP-92 it was 12.9 µM (inactive); in the assay with NCI-H23 it was 13.8 µM (inactive); with M14, 13.1 µM (inactive); with SNB-19 it was 18.5 µM (inactive).
`CCC(C)C(NC(=O)C(CCCCN)NC(=O)C(NC(=O)C(CCC(N)=O)NC(=O)C(CCCNC(=N)N)NC(C)=O)C(C)CC)C(=O)NC(Cc1c[nH]c2ccccc12)C(=O)NC(Cc1ccccc1)C(=O)NC(CCC(N)=O)C(=O)NC(CC(N)=O)C(=O)NC(CCCNC(=N)N)C(=O)NC(CCCNC(=N)N)C(=O)NC(CCSC)C(=O)NC(CCCCN)C(=O)NC(Cc1c[nH]c2ccccc12)C(=O)NC(CCCCN)C(=O)NC(CCCCN)C(N)=O` (stereo not given): the GI50 is > 50 µM (inactive) in the assay on HL-60; > 50 µM (inactive) in the assay with PC-3; 19.7 µM (inactive) in the assay on SF-539; > 50 µM (inactive) in the assay with TK-10; over 50 µM with HCT-15; > 50 µM (inactive) in the assay on DU-145. Moreover, the GI50 is 17.5 µM (inactive) in the assay on MDA-MB-435; > 50 µM (inactive) in the assay with NCI-H522; > 50 µM (inactive) with HCC 2998; 16.5 µM (inactive) with SN12C; 16.3 µM (inactive) in the assay with T47D; 39.6 µM (inactive) with HOP-62. The GI50 in the assay with RXF 393 was > 50 µM (inactive); in the assay with HOP-92, > 50 µM (inactive); in the assay on NCI-H23, > 50 µM (inactive); in the assay on M14 it was 17.9 µM (inactive); in the assay with SNB-19 it was > 50 µM (inactive).
`COc1cc2nc(-c3c(F)cccc3F)n(Cc3c(F)cccc3F)c2cc1Cc1c(F)cccc1F`: the GI50 in the assay on PC-3 was > 100 µM (inactive); in the assay on SF-539, > 68.7 µM (inactive); with TK-10, > 100 µM (inactive); in the assay on HCT-15 it was over 100 µM; in the assay with DU-145, > 100 µM (inactive); with MDA-MB-435, 8.59 µM (inactive). The GI50 with NCI-H522 was 10 µM (inactive); in the assay on HCC 2998, 20.6 µM (inactive); with SN12C it was > 69.8 µM (inactive); in the assay with NCI-H226, > 28.6 µM (inactive); in the assay with T47D, 4.05 µM (inactive); in the assay on HOP-62, > 100 µM (inactive). Also, the GI50 was 9.1 µM (inactive) with UO-31; 1.55 µM (inactive) in the assay with RXF 393; 2.79 µM (inactive) with HOP-92; > 100 µM (inactive) with NCI-H23; > 24.3 µM (inactive) with M14; > 100 µM (inactive) with SNB-19.
